Our source for the Ki values is patent publication US10988478B1, “Pyrazolo[1,5a]pyrimidine derivatives as IRAK4 modulators” (Genentech, Inc., priority 2015, dated 2021).

By Ki is commonly meant the dissociation constant of the complex between target and ligand, obtained from inhibition or displacement.

Sequence of human IRAK4 (Q9NWZ3 whole entry, the tested form may be a part): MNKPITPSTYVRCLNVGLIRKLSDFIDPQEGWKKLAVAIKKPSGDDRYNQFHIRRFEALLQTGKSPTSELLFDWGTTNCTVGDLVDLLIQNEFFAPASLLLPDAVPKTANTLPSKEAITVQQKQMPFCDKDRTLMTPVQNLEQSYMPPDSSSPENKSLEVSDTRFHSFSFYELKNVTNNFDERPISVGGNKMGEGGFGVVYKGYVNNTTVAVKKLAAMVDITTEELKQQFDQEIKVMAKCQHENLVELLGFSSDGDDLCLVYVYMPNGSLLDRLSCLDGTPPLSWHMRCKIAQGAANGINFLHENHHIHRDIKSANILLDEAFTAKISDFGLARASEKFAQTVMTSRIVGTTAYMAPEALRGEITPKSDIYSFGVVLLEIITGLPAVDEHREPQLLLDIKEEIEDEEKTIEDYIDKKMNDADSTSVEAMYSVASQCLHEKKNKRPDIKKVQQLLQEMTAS

This assay has as its target human IRAK4 (Homo sapiens (Human), UniProt Q9NWZ3). Nature of the assay: IRAK4 kinase inhibition, Transcreener fluorescence polarization ADP assay. Type of assay: biochemical. Conditions: recombinant full-length His6-IRAK4; 125 uM ATP; 90 min; Ki computed using ATP Km 642 uM. As for the experimental part: Compounds were assayed for inhibition of human IRAK4 and IRAK1 catalytic activity using recombinant enzyme produced from insect cells. Full-length IRAK4 protein, carrying an N-terminal His6-Tag, was obtained from Life Technologies (Carlsbad, Calif., USA). The IRAK1 construct was produced internally and was comprised of IRAK1 residues Arg194 to Ser712, preceded by an NH2-terminal His6 tag and the coding sequence for glutathione-S-transferase.
For `CC1(C)Cc2cc(NC(=O)c3cnn4ccc(C[C@@H]5CCNC5=O)nc34)c(C3CC3)cc2O1` [Example 515, (S)—N-(6-cyclopropyl-2,2-dimethyl-2,3-dihydrobenzofuran-5-yl)-5-((2-oxopyrrolidin-3-yl)methyl)pyrazolo[1,5-a]pyrimidine-3-carboxamide], the Ki amounted to 420 nM. As for `CC1(C)Cc2cc(NC(=O)c3cnn4cccnc34)c(N3CCCC(c4ccn[nH]4)C3)cc2O1` (centres unmarked) [Example 190, N-[2,2-dimethyl-6-[3-(1H-pyrazol-5-yl)-1-piperidyl]-3H-benzofuran-5-yl]pyrazolo[1,5-a]pyrimidine-3-carboxamide], the Ki was 630 nM. In the case of `C[C@@]1(CO)Cc2cc(NC(=O)c3cnn4cccnc34)c(N3C[C@@H]4[C@H](C3)[C@@H]4C(N)=O)cc2O1` [Example 349, N-((S)-6-((1R,5S,6R)-6-carbamoyl-3-azabicyclo[3.1.0]hexan-3-yl)-2-(hydroxymethyl)-2-methyl-2,3-dihydrobenzofuran-5-yl)pyrazolo[1,5-a]pyrimidine-3-carboxamide], the Ki is 1100 nM.

On to `CC1(C)Cc2cc(NC(=O)c3cnn4cccnc34)c(N3CCC4(CCOC4)C3)cc2O1` (centres unmarked) [Example 108, N-(2,2-dimethyl-6-(2-oxa-7-azaspiro[4.4]nonan-7-yl)-2,3-dihydrobenzofuran-5-yl)pyrazolo[1,5-a]pyrimidine-3-carboxamide], for which the Ki was 79 nM. Consider `CC1(C)Cc2cc(NC(=O)c3cnn4cccnc34)c(N3CC4COCC4C3)cc2O1` (centres unmarked) [Example 191, N-[6-(1,3,3a,4,6,6a-hexahydrofuro[3,4-c]pyrrol-5-yl)-2,2-dimethyl-3H-benzofuran-5-yl]pyrazolo[1,5-a]pyrimidine-3-carboxamide], for which the Ki was 27 nM. With `C[C@]1(CCO)Cc2cc(NC(=O)c3cnn4cccnc34)c(N3CCOCC3)cc2O1` [Example 388, (R)—N-(2-(2-hydroxyethyl)-2-methyl-6-morpholino-2,3-dihydrobenzofuran-5-yl)pyrazolo[1,5-a]pyrimidine-3-carboxamide] the figure was 12 nM. With `Cn1cncc1C1CCN(c2cc3c(cc2NC(=O)c2cnn4cccnc24)CC(C)(C)O3)C1` (centres unmarked) [Example 188, N-[2,2-dimethyl-6-[3-(3-methylimidazol-4-yl)pyrrolidin-1-yl]-3H-benzofuran-5-yl]pyrazolo[1,5-a]pyrimidine-3-carboxamide] the figure was 84 nM. In the case of `COCCCN1CCN(c2cc3c(cc2NC(=O)c2cnn4cccnc24)CC(C)(C)O3)CC1` [Example 465, N-(6-(4-(3-methoxypropyl)piperazin-1-yl)-2,2-dimethyl-2,3-dihydrobenzofuran-5-yl)pyrazolo[1,5-a]pyrimidine-3-carboxamide] it was 38 nM; in that of `CC1(CC#N)Cc2cc(NC(=O)c3cnn4cccnc34)c(N3CCOCC3)cc2O1` (centres unmarked) [Example 386, N-[2-(Cyanomethyl)-2-methyl-6-morpholino-3H-benzofuran-5-yl]pyrazolo[1,5-a]pyrimidine-3-carboxamide], 16 nM; in that of `CC1(C)Cc2cc(NC(=O)c3cnn4cccnc34)c(N3CCN(Cc4cnoc4)CC3)cc2O1` [Example 504, N-(6-(4-(isoxazol-4-ylmethyl)piperazin-1-yl)-2,2-dimethyl-2,3-dihydrobenzofuran-5-yl)pyrazolo[1,5-a]pyrimidine-3-carboxamide], 3.1 nM. For the compound `CC(C)(O)[C@H](F)CN1Cc2cc(NC(=O)c3cnn4cccnc34)c(N3CCC(C#N)CC3)cc2C1=O` [Example 274, (R)-N-(6-(4-cyanopiperidin-1-yl)-2-(2-fluoro-3-hydroxy-3-methylbutyl)-1-oxoisoindolin-5-yl)pyrazolo[1,5-a]pyrimidine-3-carboxamide], the Ki is 1.4 nM.

`Cn1cc(CN2CCN(c3cc4c(cc3NC(=O)c3cnn5cccnc35)CC(C)(C)O4)CC2)cn1` [Example 460, N-(2,2-dimethyl-6-(4-((1-methyl-1H-pyrazol-4-yl)methyl)piperazin-1-yl)-2,3-dihydrobenzofuran-5-yl)pyrazolo[1,5-a]pyrimidine-3-carboxamide]: the Ki worked out at 5.9 nM. Consider `CC(C)(O)[C@H](F)CN1Cc2cc(NC(=O)c3cnn4cccnc34)c(OCC3CC3)cc2C1=O` [Example 496, N-[6-(Cyclopropylmethoxy)-2-[(2R)-2-fluoro-3-hydroxy-3-methyl-butyl]-1-oxo-isoindolin-5-yl]pyrazolo[1,5-a]pyrimidine-3-carboxamide], for which the Ki came to 0.83 nM. Consider `CP(C)(=O)c1ccc(NC(=O)c2cnn3cccnc23)c(N2CCOCC2)c1` [Example 518, N-(4-dimethylphosphoryl-2-morpholino-phenyl)pyrazolo[1,5-a]pyrimidine-3-carboxamide], for which the inhibitory constant (Ki) worked out at 130 nM. In the case of `O=C(Nc1cc2c(cc1N1CCOCC1)OC1(CCNC1)C2)c1cnn2cccnc12` (centres unmarked) [Example 393, N-(6-Morpholinospiro[3H-benzofuran-2,3′-pyrrolidine]-5-yl)pyrazolo[1,5-a]pyrimidine-3-carboxamide] it was 24 nM; in that of `O=C(Nc1cc2c(cc1N1CCOCC1)C(=O)N(C[C@H]1CCC[C@@H]1O)C2)c1cnn2cccnc12` (stereo in doubt) [Example 550, N-[2-[[(1R,2S)-2-hydroxycyclopentyl]methyl]-6-morpholino-1-oxo-isoindolin-5-yl]pyrazolo[1,5-a]pyrimidine-3-carboxamide], 2.1 nM.

With `CC(C)(CO)CN1Cc2cc(NC(=O)c3cnn4cccnc34)c(N3CCOCC3)cc2C1=O` [Example 267, N-[2-(3-hydroxy-2,2-Dimethyl-propyl)-6-morpholino-1-oxo-isoindolin-5-yl]pyrazolo[1,5-a]pyrimidine-3-carboxamide], the Ki amounted to 39 nM.

As to `CC1(C)Cc2cc(NC(=O)c3cnn4cccnc34)c(N3C[C@@H]4[C@H](C3)[C@H]4C(N)=O)cc2O1` [Example 208, N-(6-((1R,5S,6r)-6-carbamoyl-3-azabicyclo[3.1.0]hexan-3-yl)-2,2-dimethyl-2,3-dihydrobenzofuran-5-yl)pyrazolo[1,5-a]pyrimidine-3-carboxamide], the Ki amounted to 15 nM. In the case of `CN(C)c1cc2c(cc1NC(=O)c1cnn3cccnc13)CC(C)(C)O2` [Example 537, N-(6-(dimethylamino)-2,2-dimethyl-2,3-dihydrobenzofuran-5-yl)pyrazolo[1,5-a]pyrimidine-3-carboxamide] it was 12 nM; in that of `CC1(O)CN(c2cc3c(cc2NC(=O)c2cnn4cccnc24)CC(C)(C)O3)C1` [Example 105, N-[6-(3-hydroxy-3-methyl-azetidin-1-yl)-2,2-dimethyl-3H-benzofuran-5-yl]pyrazolo[1,5-a]pyrimidine-3-carboxamide], 720 nM; in that of `C[C@H]1CN(C)CC[C@]12Cc1cc(NC(=O)c3cnn4cccnc34)c(N3CCOCC3)cc1O2` [Example 497, N-((2R,3'S)-1′,3′-dimethyl-6-morpholino-3H-spiro[benzofuran-2,4′-piperidin]-5-yl)pyrazolo[1,5-a]pyrimidine-3-carboxamide], 2.6 nM. In the case of `CC(C)NC(=O)CN1CCN(c2cc3c(cc2NC(=O)c2cnn4cccnc24)CC(C)(C)O3)CC1` [Example 225, N-(6-(4-(2-(Isopropylamino)-2-oxoethyl)piperazin-1-yl)-2,2-dimethyl-2,3-dihydrobenzofuran-5-yl)pyrazolo[1,5-a]pyrimidine-3-carboxamide] it was 45 nM; in that of `CC(C)N1Cc2cc(NC(=O)c3cnn4cccnc34)c(N3CCN(CC(N)=O)CC3)cc2C1=O` [Example 272, N-[6-[4-(2-Amino-2-oxo-ethyl)piperazin-1-yl]-2-isopropyl-1-oxo-isoindolin-5-yl]pyrazolo[1,5-a]pyrimidine-3-carboxamide], 4 nM; in that of `CC(C)N1Cc2cc(NC(=O)c3cnn4cc(C#N)cnc34)c(N3CCOCC3)cc2C1=O` [Example 485, 6-cyano-N-(2-isopropyl-6-morpholino-1-oxo-isoindolin-5-yl)pyrazolo[1,5-a]pyrimidine-3-carboxamide], 66 nM.

Consider `C[C@@]1(CO)Cc2cc(NC(=O)c3cnn4cccnc34)c(N3CCC4(CC3)CNC(=O)C4)cc2O1` [Example 418, (S)-N-(2-(hydroxymethyl)-2-methyl-6-(3-oxo-2,8-diazaspiro[4.5]decan-8-yl)-2,3-dihydrobenzofuran-5-yl)pyrazolo[1,5-a]pyrimidine-3-carboxamide], for which the inhibition constant (Ki) came to 4.8 nM. For `CC(C)(O)[C@]1(C)Cc2cc(NC(=O)c3cnn4cccnc34)c(N3CCN(CC(F)F)CC3)cc2O1` [Example 361, (S)—N-(6-(4-(2,2-Difluoroethyl)piperazin-1-yl)-2-(2-hydroxypropan-2-yl)-2-methyl-2,3-dihydrobenzofuran-5-yl)pyrazolo[1,5-a]pyrimidine-3-carboxamide], the Ki came to 9.2 nM. With `Cc1cnc2c(C(=O)Nc3cc4c(cc3N3CCC(C(C)(C)O)CC3)O[C@@](C)(CO)C4)cnn2c1` [Example 52, (R)—N-(2-(Hydroxymethyl)-6-(4-(2-hydroxypropan-2-yl)piperidin-1-yl)-2-methyl-2,3-dihydrobenzofuran-5-yl)-6-methylpyrazolo[1,5-a]pyrimidine-3-carboxamide], the Ki is 3.8 nM.

With `Cn1cnc(COc2cc3c(cc2NC(=O)c2cnn4cccnc24)CC(C)(C)O3)c1` [Example 538, N-(2,2-dimethyl-6-((1-methyl-1H-imidazol-4-yl)methoxy)-2,3-dihydrobenzofuran-5-yl)pyrazolo[1,5-a]pyrimidine-3-carboxamide], the inhibitory constant (Ki) stood at 220 nM.

As to `CC1(C)Cc2cc(NC(=O)c3cnn4cccnc34)c(N3CCC4CC43)cc2O1` (centres unmarked) [Example 240, N-(6-(2-Azabicyclo[3.1.0]hexan-2-yl)-2,2-dimethyl-2,3-dihydrobenzofuran-5-yl)pyrazolo[1,5-a]pyrimidine-3-carboxamide], the inhibition constant (Ki) is 27 nM.
